Experimental data reported in US12611406B2, “Oxopiperazine derivatives for the treatment of cancer” (Inthera Bioscience AG, priority 2020, dated 2026).
Entries after “also recorded” stand apart in the source; their conditions may differ.

Tests used:
[1] = 14-day daily oral repeated-dose exploratory study in CD-1 mice (mesylate salt); type: in vivo; conditions: for AUC(0-t) / Cmax: CD-1, mouse, in vivo, po
Procedure: This study explored the TK profile of Compound 1 after 14 days once daily oral dosing in male and female CD-1 mice.
Compound 1 (mesylate salt) was administered once daily for 14 consecutive days by oral gavage to groups of CD-1 mice (n=8/sex/group) at dose levels of 0 (control), 1, 5, 10 or 15 mg/kg/day. A suspension of 0.5% Methylcellulose (w/v) and 0.1% Polysorbate 80 (Tween 80) (v/v) was used as vehicle. For TK investigations sparse blood sampling was performed on treatment Days 1 and 14; three blood samples per animal and day were collected either pre-dose, 2 and 8 hours after administration (4 male and female animals per group) or 1, 4, and 24 hours (remaining 4 male and 4 female animals per group) after administration.

PR6512 = PR6512 mouse PDX prostate cancer model, daily oral; type: in vivo
From the text: FIG. 7B the efficacy of Compound 1 in the in vivo mouse PDX prostate cancer model PR6512. […] QD: once daily treatment. po: per os.
Again, an effect of the body weight was detected in all treatment groups (including the vehicle group).

[2] = 28-day once weekly oral repeated-dose DRF TK study in Beagle dogs (mesylate salt), plasma; type: in vivo; conditions: for AUC / Cmax: both sexes, Beagle, dog, plasma, po
Procedure: The objective of the study was to determine the TK profile of Compound 1 following 4 weekly oral administrations to Beagle dog and to assess reversibility of any changes following a 13-day recovery period.
The test item Compound 1 (mesylate salt) was administered in 4 weekly doses by oral gavage to groups of Beagle dogs (n=2/sex/group) at dose levels of 10, 15, and 20 mg/kg bodyweight per week. A suspension of 0.5% methylcellulose (w/v) in sterile water served as vehicle. Blood samples for PK analysis were collected for each dosing day (Day 1, 8, 15, and 22) at pre-dose, 0.25, 0.5, 1, 2, 4, 6, 8, 12, and 24 hours after administration.
Total plasma concentrations of Compound 1 were analyzed using a qualified LC-MS/MS method.
Dosing at 15 mg/kg/adm was limited to 2 weekly doses, since animals were subjected to necropsy investigation 3 days after the second dose (Day 8) in order to investigate possible macroscopic changes during the treatment period. n.d.: not determined. AUC parameters were calculated using GraphPad Prism version 9.

SNU-16 = SNU-16 gastric cancer CDX mouse model; type: in vivo
From the text: Left panel: Tumor growth curves. Right panel: Body weight development. […] QW: once weekly treatment. p.o.: per oral. QD: once daily treatment. BID: twice daily treatment. QW: once weekly treatment.
Values larger than 100% indicate tumor regression.

A549 NSCLC cells = experiment: Cell cycle FACS analysis; type: cell-based; conditions: A549, wild-type Rb and p53; 20 or 200 nM, 24 h
Procedure: Cell cycle phase distribution in control (C) cells or cells treated at 20 or 200 nM Compound 1 for 24 hours (24 h) determined by fluorescence activated cell sorting (FACS) analysis, and detection of histone H2A variant H2A.X phosphorylation (γH2A.X, also referred to herein as gamma H2A.X or γH2A.X) by Western blot as DNA damage biomarker.
In FIG. 3A, protein amounts were normalized using total protein load with ImageLab 6.0 Software (BioRad).

[3] = 10 mg/kg, 10 mg/kg weekly, Day 1
[4] = 10 mg/kg, 10 mg/kg weekly, Day 8
[5] = 10 mg/kg, 10 mg/kg weekly, Day 15
[6] = 10 mg/kg, 10 mg/kg weekly, Day 22
[7] = 15 mg/kg, 15 mg/kg weekly, Day 1
[8] = 15 mg/kg, 15 mg/kg weekly, Day 8

CC(C)C[C@@H]1NCCN([C@@H](CC(C)C)C(=O)N2CCC3(C[C@@H]2C)OCC(CN2CCCC2)CO3)C1=O (stereo partly drawn) [Compound 1, (S)-3-isobutyl-1-((S)-4-methyl-1-((S)-8-methyl-3-(pyrrolidin-1-ylmethyl)-1,5-dioxa-9-azaspiro[5.5]undecan-9-yl)-1-oxopentan-2-yl)piperazin-2-one]
tolerability ([1]; 1, 5, 10, and 15 mg/kg/day orally once daily for 14 consecutive days): well-tolerated
AUC(0-t) ([1]; female, 1 mg/kg, F, Day 1): 33.1 ng·h/mL
Cmax ([1]; female, 1 mg/kg, F, Day 1): 6.4 ng/mL
AUC(0-t) ([1]; female, 1 mg/kg, F, Day 14): 112 ng·h/mL
Cmax ([1]; female, 1 mg/kg, F, Day 14): 16.6 ng/mL
AUC(0-t) ([1]; female, 5 mg/kg, F, Day 1): 258 ng·h/mL
Cmax ([1]; female, 5 mg/kg, F, Day 1): 67.6 ng/mL
AUC(0-t) ([1]; female, 5 mg/kg, F, Day 14): 478 ng·h/mL
Cmax ([1]; female, 5 mg/kg, F, Day 14): 115 ng/mL
AUC(0-t) ([1]; female, 10 mg/kg, F, Day 1): 304 ng·h/mL
Cmax ([1]; female, 10 mg/kg, F, Day 1): 60.5 ng/mL
AUC(0-t) ([1]; female, 10 mg/kg, F, Day 14): 690 ng·h/mL
Cmax ([1]; female, 10 mg/kg, F, Day 14): 97.7 ng/mL
AUC(0-t) ([1]; female, 15 mg/kg, F, Day 1): 711 ng·h/mL
Cmax ([1]; female, 15 mg/kg, F, Day 1): 140 ng/mL
AUC(0-t) ([1]; female, 15 mg/kg, F, Day 14): 1090 ng·h/mL
Cmax ([1]; female, 15 mg/kg, F, Day 14): 151 ng/mL
AUC(0-t) ([1]; male, 1 mg/kg, M, Day 1): 55.4 ng·h/mL
Cmax ([1]; male, 1 mg/kg, M, Day 1): 10.9 ng/mL
AUC(0-t) ([1]; male, 1 mg/kg, M, Day 14): 108 ng·h/mL
Cmax ([1]; male, 1 mg/kg, M, Day 14): 16.3 ng/mL
AUC(0-t) ([1]; male, 5 mg/kg, M, Day 1): 225 ng·h/mL
Cmax ([1]; male, 5 mg/kg, M, Day 1): 42.9 ng/mL
AUC(0-t) ([1]; male, 5 mg/kg, M, Day 14): 607 ng·h/mL
Cmax ([1]; male, 5 mg/kg, M, Day 14): 90 ng/mL
AUC(0-t) ([1]; male, 10 mg/kg, M, Day 1): 361 ng·h/mL
Cmax ([1]; male, 10 mg/kg, M, Day 1): 64.8 ng/mL
AUC(0-t) ([1]; male, 10 mg/kg, M, Day 14): 782 ng·h/mL
Cmax ([1]; male, 10 mg/kg, M, Day 14): 105 ng/mL
AUC(0-t) ([1]; male, 15 mg/kg, M, Day 1): 689 ng·h/mL
Cmax ([1]; male, 15 mg/kg, M, Day 1): 133 ng/mL
AUC(0-t) ([1]; male, 15 mg/kg, M, Day 14): 717 ng·h/mL
Cmax ([1]; male, 15 mg/kg, M, Day 14): 102 ng/mL
tumor growth (PR6512; 3 mg/kg QD): complete block of tumor growth
tumor growth (PR6512; 1, 1.5, 2, and 3 mg/kg daily oral): dose dependent growth inhibition of tumors
PSA in blood (PR6512; PR6512): effective PSA reduction
clinical signs ([2]; 15 mg/kg/adm, limited to 2 oral doses (Days 1 and 8)): reduced food and water intake
AUC [2, 3]: 1720 ng·h/mL
Cmax [2, 3]: 536 ng/mL
AUC [2, 4]: 1590 ng·h/mL
Cmax [2, 4]: 512 ng/mL
AUC [2, 5]: 1660 ng·h/mL
Cmax [2, 5]: 497 ng/mL
AUC [2, 6]: 1170 ng·h/mL
Cmax [2, 6]: 360 ng/mL
AUC [2, 7]: 2630 ng·h/mL
Cmax [2, 7]: 752 ng/mL
AUC [2, 8]: 2300 ng·h/mL
Cmax [2, 8]: 506 ng/mL
AUC ([2]; 20 mg/kg, Day 1): 3010 ng·h/mL
Cmax ([2]; 20 mg/kg, Day 1): 994 ng/mL
tolerability ([2]; single oral administration of 20 mg/kg/adm, 20 mg/kg): serious adverse event (SAE) on day 5; also recorded: not tolerated in one female Beagle dog
tolerability ([2]; weekly oral for 4 consecutive weeks at 10 mg/kg/adm): tolerated
Tumor growth inhibition (SNU-16; once weekly 60 mg/kg/day as 30 mg/kg BID, 6 weeks, p <0.001): 103% (<0.001)/**6 weeks
anti-tumor efficacy, weekly vs daily (SNU-16; weekly 30 mg/kg BID compared to 3 mg/kg daily): comparable anti-tumor efficacy
cell cycle response (A549 NSCLC cells): arrested in G1-phase
